For test [1], the target named is T1, RORγt (Homo sapiens, UniProt P51449).
T1 construct: The plasmid of pFN26A-RORγt-LBD and pG14.35 (Promega, Cat. No. E1370) were co-transfected into HEK 293 cells; expressed in transfected cells; host or cells: HEK 293 cells (Cat. No. GNHu18)
T1 sequence (P51449 269-508 limits assumed): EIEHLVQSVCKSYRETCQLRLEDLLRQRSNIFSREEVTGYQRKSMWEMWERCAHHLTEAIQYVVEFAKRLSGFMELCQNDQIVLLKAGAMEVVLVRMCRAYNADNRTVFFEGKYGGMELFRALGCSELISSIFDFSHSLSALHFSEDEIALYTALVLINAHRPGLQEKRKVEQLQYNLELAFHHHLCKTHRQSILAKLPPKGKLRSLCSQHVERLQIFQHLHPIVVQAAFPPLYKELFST
The test can be described thus: RORγt cellular reporter gene detection assay.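 As to Cellular Reporter Assay Amax: Ursolic Acid added as 5 µL of 20 µM medium per well.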 Type of test: cell-based. Particulars: 24 hrs; for pEC50: HEK 293 cells co-transfected with pFN26A-RORγt-LBD and pG14.35, in presence of antagonist Ursolic acid, top concentration 50 μM; for Cellular Reporter Assay Amax: upper activation limit, HEK 293 cells, in presence of antagonist Ursolic acid. The method, boiled down:
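HEK293 cells co-transfected with RORγt-LBD and luciferase reporter plasmids, treated with Ursolic acid antagonist plus compound in 4-fold dilutions from 50 μM for 24 h at 37° C. Firefly and Renilla luminescence read; EC50 and Amax from four-parameter fit.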

Test [2] deals with T2, RORγt-LBD (Homo sapiens, UniProt P51449).
T2 sequence (P51449 269-508 limits assumed): T1 sequence (P51449 269-508 limits assumed)
As to the kind of experiment: Time-resolved fluorescence resonance energy-transfer assay (TR-FRET), co-activator peptide recruitment. Type of test: biochemical. The arrangement: TR-FRET Biochemical Amax: unit not given here. Particulars: for pEC50: His-RORγt-LBD 30 nM, SRC peptide 500 nM, agonistic activity, averages of one or more measurements, read-out: TR-FRET Biochemical EC50/; for TR-FRET Biochemical Amax: upper activation limit, His-RORγt-LBD, SRC peptide. The essentials:
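Eu-anti-His-labelled His-RORγt-LBD (30 nM final) recruits biotin-SRC co-activator peptide (500 nM final), detected via APC-streptavidin (5 nM) and Eu-anti-His (0.25 nM). Buffer was Tris/KCl/EDTA at pH 7.0 with 0.01% Triton X-100 and 1 mM DTT. Compounds were tested at 7 points in 5-fold dilutions. Plates were incubated overnight at 4 °C then 1 h at RT, and agonism was read as the 665/615 nm ratio.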
(In general: In TR-FRET formats the signal depends on donor and acceptor labels being close together.)

pEC50: −log10 of the molar value.

For the molecule `N#Cc1cc(F)cc(-c2ccc3c(c2)N(S(=O)(=O)c2cccc(C(F)(F)F)c2)C[C@@H]2CN(CC(=O)O)CCN32)c1` [Example 95, (S)-2-(8-(3-cyano-5-fluorophe-nyl)-6-((3-(trifluoromethyl)phe-nyl)sulfonyl)-1,2,4,4a,5,6-hexa-hydro-3H-pyrazino[1,2-a]quin-oxalin-3-yl)acetic acid], in test [1], the pEC50 was 6.19 and the “Cellular Reporter Assay Amax” value came to 1.4. For the same molecule, in test [2], the pEC50 is 7.38 and the “TR-FRET Biochemical Amax” value came to 0.40.
In the same order, the values of `N#Cc1ccc(F)c(-c2ccc3c(c2)N(S(=O)(=O)c2cccc(C(F)(F)F)c2)C[C@@H]2CN(CC(=O)O)CCN32)c1` [Example 96, (S)-2-(8-(5-cyano-2-fluorophe-nyl)-6-((3-(trifluoromethyl)phe-nyl)sulfonyl)-1,2,4,4a,5,6-hexa-hydro-3H-pyrazino[1,2-a]quin-oxalin-3-yl)acetic acid] are 5.68, 1.2, 7.50 and 0.43.
Consider `N#Cc1cc(Cl)cc(-c2ccc3c(c2)N(S(=O)(=O)c2cccc(C(F)(F)F)c2)C[C@@H]2CN(CC(=O)O)CCN32)c1` [Example 97, (S)-2-(8-(3-chloro-5-cyanophe-nyl)-6-((3-(trifluoromethyl)phe-nyl)sulfonyl)-1,2,4,4a,5,6-hexa-hydro-3H-pyrazino[1,2-a]quinox-alin-3-yl)acetic acid], for which, in test [1], the pEC50 is 6.22 and the “Cellular Reporter Assay Amax” value is 2.5. For the same molecule, in test [2], the pEC50 is 7.43 and the “TR-FRET Biochemical Amax” value was determined as 0.61.
For `O=S(=O)(c1cccc(C(F)(F)F)c1)N1C[C@@H]2COCCN2c2ccc(-c3cc(F)cc(OC(F)F)c3)cc21` [Example 98, (R)-8-(3-(difluoromethoxy)-5-fluorophenyl)-6-((3-(trifluoromethyl)phenyl)sulfonyl)-1,2,4,4a,5,6-hexahydro-[1,4]oxazino[4,3-a]quinoxaline] the same measures were 5.81, 5.4, 7.69 and 0.75.
For `O=S(=O)(c1cccc(C(F)(F)F)c1)N1C[C@H]2COCCN2c2ccc(-c3cc(F)cc(OC(F)F)c3)cc21` [Example 99] the same measures were 5.32, 6.3, 7.40 and 0.74.
For the molecule `O=S(=O)(c1cccc(C(F)(F)F)c1)N1CC2CSCCN2c2ccc(-c3cc(F)cc(OC(F)F)c3)cc21` (stereo not drawn) [Example 100, 8-(3-(difluoromethoxy)-5-fluorophenyl)-6-((3-(trifluoromethyl)phenyl)sulfonyl)-1,2,4,4a,5,6-hexahydro-[1,4]thiazino[4,3-a]quinoxaline], in test [1], the pEC50 is 5.46 and the “Cellular Reporter Assay Amax” value is given as 4.3. For the same molecule, in test [2], the pEC50 was 7.04 and the “TR-FRET Biochemical Amax” value amounted to 0.84.
For the molecule `O=S(=O)(c1cccc(C(F)(F)F)c1)N1CC2C[S+]([O-])CCN2c2ccc(-c3cc(F)cc(OC(F)F)c3)cc21` (stereo not drawn) [Example 101, 8-(3-(difluoromethoxy)-5-fluorophenyl)-6-((3-(trifluoromethyl)phenyl)sulfonyl)-1,2,4,4a,5,6-hexahydro-[1,4]thiazino[4,3-a]quinoxaline 3-oxide], in test [1], the pEC50 was 6.04 and the “Cellular Reporter Assay Amax” value came out at 3.9. Also, in test [2], the pEC50 was 7.39 and the “TR-FRET Biochemical Amax” value was found to be 0.45.
Regarding `O=S1(=O)CCN2c3ccc(-c4cc(F)cc(OC(F)F)c4)cc3N(S(=O)(=O)c3cccc(C(F)(F)F)c3)CC2C1` (stereo not drawn) [Example 102, 8-(3-(difluoromethoxy)-5-fluorophenyl)-6-((3-(trifluoromethyl)phenyl)sulfonyl)-1,2,4,4a,5,6-hexahydro-[1,4]thiazino[4,3-a]quinoxaline 3,3-dioxide], the figures for the pEC50 in test [1] and in test [2] were 5.67 and 6.09, respectively.
For `O=S(=O)(c1cccc(C(F)(F)F)c1)N1C[C@@H]2CC(F)CCN2c2ccc(-c3cc(F)cc(OC(F)F)c3)cc21` (stereo partly drawn) [Example 103, (6aS)-3-(3-(difluoromethoxy)-5-fluorophenyl)-8-fluoro-5-((3-(trifluoromethyl)phenyl)sulfonyl)-6,6a,7,8,9,10-hexahydro-5H-pyrido[1,2-a]quinoxaline], in test [1], the pEC50 was 5.88 and the “Cellular Reporter Assay Amax” value was found to be 2.7. Further, in test [2], the pEC50 is 7.39 and the “TR-FRET Biochemical Amax” value came to 0.49.
In the same order, the values of `NC(=O)OC1CCN2c3ccc(-c4cc(F)cc(OC(F)F)c4)cc3N(S(=O)(=O)c3cccc(C(F)(F)F)c3)C[C@@H]2C1` (stereo partly drawn) [Example 104, (6aS)-3-(3-(difluoromethoxy)-5-fluorophenyl)-5-((3-(trifluoromethyl)phenyl)sulfonyl)-6,6a,7,8,9,10-hexahydro-5H-pyrido[1,2-a]quinoxalin-8-yl carbamate] are 6.46, 2.3, 7.33 and 0.81.
In the same order, the values of `O=S(=O)(c1cccc(C(F)(F)F)c1)N1C[C@@H]2CC(O)CCN2c2ccc(-c3cc(F)cc(OC(F)F)c3)cc21` (stereo partly drawn) [Example 105, (6aS)-3-(3-(difluoromethoxy)-5-fluorophenyl)-5-((3-(trifluoromethyl)phenyl)sulfonyl)-6,6a,7,8,9,10-hexahydro-5H-pyrido[1,2-a]quinoxalin-8-ol] are 6.02, 4.8, 6.77 and 0.69.
Consider `O=C(O)COC1CCN2c3ccc(-c4cc(F)cc(OC(F)F)c4)cc3N(S(=O)(=O)c3cccc(C(F)(F)F)c3)C[C@@H]2C1` (stereo partly drawn) [Example 106, 2-(((6aS)-3-(3-(difluoromethoxy)-5-fluorophenyl)-5-((3-(trifluoromethyl)phenyl)sulfonyl)-6,6a,7,8,9,10-hexahydro-5H-pyrido[1,2-a]quinoxalin-8-yl)oxy)acetic acid], for which, in test [1], the pEC50 was 6.15 and the “Cellular Reporter Assay Amax” value is reported as 4.1. In test [2], the pEC50 is 7.14 and the “TR-FRET Biochemical Amax” value was 0.48.
On to `C[C@@]1(O)CCN2c3ccc(-c4cc(F)cc(OC(F)F)c4)cc3N(S(=O)(=O)c3cccc(C(F)(F)F)c3)C[C@@H]2C1` [Example 107, (6aS,8R)-3-(3-(difluoromethoxy)-5-fluorophenyl)-8-methyl-5-((3-(trifluoromethyl)phenyl)sulfonyl)-6,6a,7,8,9,10-hexahydro-5H-pyrido[1,2-a]quinoxalin-8-ol], for which, in test [1], the pEC50 was 6.19 and the “Cellular Reporter Assay Amax” value is listed as 3.0. In test [2], the pEC50 is 7.01 and the “TR-FRET Biochemical Amax” value was determined as 1.31.
In the same order, the values of `C[C@]1(O)CCN2c3ccc(-c4cc(F)cc(OC(F)F)c4)cc3N(S(=O)(=O)c3cccc(C(F)(F)F)c3)C[C@@H]2C1` [Example 108, (6aS,8S)-3-(3-(difluoromethoxy)-5-fluorophenyl)-8-methyl-5-((3-(trifluoromethyl)phenyl)sulfo-nyl)-6,6a,7,8,9,10-hexa-hydro-5H-pyrido[1,2-a]quinoxalin-8-ol] are 5.70, 4.0, 7.26 and 0.99.

For the origin of these results see patent US20220009894A1, “1,2,3,4-TETRAHYDROQUINOXALINE DERIVATIVE, PREPARATION METHOD THEREFOR AND APPLICATION THEREOF” (Abbisko Therapeutics Co., Ltd., priority 2019, published 2022).
